Laboratory results taken from publication PMC11877631, “Novel Nucleus-Oriented Quenched Activity-Based Probes Link Cathepsin Nuclear Localization with Mitosis” (ACS Sensors, 2025).

Experiments:
[1] = Quenching efficiency (fluorescent plate reader); type: physicochemical; details: lower fluorescence than average of nonquenched probes; slope ratio; 0.013–10 μM in acetate buffer pH 5.5; Ex./Em. 535/570 nm
Method: Increasing concentrations (0.013–10 μM) of KRS (A1-F1), in acetate buffer (50 mM acetate, 5 mM MgCl2, 2 mM DTT, pH 5.5), were prepared in a 96-well plate. Fluorescence was measured and quantified using a BioRad plate reader, Ex./Em. 535/570 nm. Arbitrary fluorescent units were plotted versus probe concentration, and the ratio between the slope of each quenched probe and the average of the nonquenched probes were determined as quenching efficiency.

NIH-3T3 cells [2] = assay: Live cell confocal imaging; type: cell-based, mouse; details: NIH-3T3, 2.5 μM, 6 h; for Nuclear cathepsin labeling (confocal Z-stack, costaining with Hoechst): 63× objective; for Probe staining intensity in live cells: fluorescence microscopy
Method: (§1) NIH-3T3 or HeLa cells were seeded in an 8-well coverslip chamber (Lab-Tek) at a density of 100,000 cells per well and grown at 37 °C under 5% of CO2, 24 h later, cells were treated with 2.5 μM KRSs probes for 6 h. The medium was replaced with DMEM without phenol red, and Hoechst was added to a final concentration of 5 μg/mL. Live imaging of cells using a Zeiss LSM 710 Axio Observer.Z1 with a 63/24 Oil DIC M27 lens, in Cy3 and DAPI channels, was performed over 24 h; pictures were taken every 20–25 min. The Z-stack analysis was performed using 3–5 different depths focusing on the cell nucleus; each slice was 1–1.5 μm. Image processing was performed using NIS-Elements image acquisition software, quantifying the 63× images of several experiments and calculating the average fluorescence intensity. Statistics and standard deviation were calculated by using Microsoft Excel.

[3] = target: Recombinant human cathepsin B (Homo sapiens, UniProt P07858); assay: Recombinant cathepsin labeling, fluorescent SDS-PAGE; type: binding; details: pH 5.5, 37 °C, probe intensities compared with KRS-D1(qAc), GB111-NH2 given as pretreatment before KRS probes
Method: (§2) Recombinant human cathepsins B (0.7 μg), L (0.6 μg), or S (0.7 μg) in reaction buffer (50 mM acetate, 5 mM MgCl2, 2 mM DTT, pH 5.5) was pretreated with the cathepsin inhibitor GB111-NH2 or vehicle for 30 min at room temp. Indicated concentrations of KRS probes were added to the samples for 30 min at 37 °C. The reaction was stopped by adding 4× sample buffer (40% glycerol, 0.2 M Tris/HCl 6.8, 20% β-mercaptoethanol, 12% SDS, and 0.4 mg/mL bromophenol blue). The samples were boiled and separated by a 12% SDS gel and scanned by a Typhoon laser scanner at Ex./Em. 535/570 nm for fluorescence.

[4] = target: Recombinant human cathepsin L (Homo sapiens, UniProt P07711); assay: as above; type: binding; details: pH 5.5, 37 °C, probe intensities compared with KRS-D1(qAc), GB111-NH2 given as pretreatment before KRS probes
Method: as §2

[5] = target: Recombinant human cathepsin S (Homo sapiens, UniProt P25774); assay: as above; type: binding; details: pH 5.5, 37 °C, probe intensities compared with KRS-D1(qAc), GB111-NH2 given as pretreatment before KRS probes
Method: as §2

HeLa cells [6] = assay: Live cell confocal imaging and time-lapse movies; type: cell-based, human
Method: as §1

[7] = target: T1, intracellular cathepsin B in NIH-3T3 cells (Mus musculus, UniProt P10605); type: cell-based; details: for Labeling of intracellular cathepsin B: live NIH-3T3, 6 h probe incubation, band intensity, in comparison to probes without the CPP
T1 construct: KRS probes freely penetrated the cells and labeled endogenous cathepsins in a dose-dependent manner; endogenous in cells; host or cells: NIH-3T3
Method: (§3) NIH-3T3 cells (2.5 × 10^5 cells/well) were seeded in a 12-well plate 1 day prior to treatment. Cells were pretreated with inhibitor GB111-NH2 or vehicle for 30 min followed by incubation with KRS probes at indicated concentrations predissolved in 0.1% DMSO and 0.9% ethanol in a culture medium. After 6 h of probe incubation cells were washed with PBS and lysed by addition of sample buffer as described above. Lysates were boiled for 5 min, centrifuged, and separated by 12.5% SDS-PAGE. Cathepsins labeled in cells were visualized by scanning the gel with a Typhoon laser scanner at Ex./Em. 535/570 nm.

[8] = target: T2, intracellular cathepsin L in NIH-3T3 cells (Mus musculus, UniProt P06797); assay: Probe labeling in intact cells, fluorescent SDS-PAGE; type: cell-based; details: live NIH-3T3, 6 h probe incubation, band intensity; in comparison to probes without the CPP
T2 construct: KRS probes freely penetrated the cells and labeled endogenous cathepsins in a dose-dependent manner; endogenous in cells; host or cells: NIH-3T3
Method: as §3

NIH-3T3 cells [9] = type: cell-based, mouse
Method: (§4) NIH-3T3 cells (2.5 × 10^5 cells/well) or HeLa cells (2.0 × 10^5 cells/well) were seeded in a 12-well plate 1 day before treatment. Cells were incubated with KRS probes at 2.5 μM predissolved in 0.1% DMSO and 0.9% ethanol in a culture medium for indicated durations. After the incubation, cells were washed with PBS and lysed by the addition of sample buffer. Samples were analyzed by fluorescent SDS-PAGE as described above.

HeLa cells [10] = type: cell-based, human
Method: as §4

HeLa cells [11] = assay: Image Streamer flow imaging, fixed cells; type: cell-based, human; details: 6 h, Draq5 stain
Method: Live or methanol fixed cells were pretreated with KRS probes at 2.5 μM for 6 h predissolved in 0.1% DMSO and 0.9% ethanol in a culture medium. After the incubation, cells were washed with PBS centrifuged and dissolved in PBS in a final volume of 50 μL. The DNA markers: Hoechst (Thermo Fisher) at a final concentration of 1 μg/mL or Draq5 (Thermo Fisher) at a final concentration of 1.5 μM were added. The samples were analyzed using an Image StreamX Flow Imager system (Merk Millipore).

HeLa cells [12] = assay: Subcellular fractionation with fluorescent SDS-PAGE; type: cell-based, human; details: 2.5 μM, 6 h; for Active cathepsin in nuclear fraction: 20 μg protein per fraction
Method: Cell fractionation was performed according to the manufacturer’s instructions using the Subcellular Protein Fractionation Kit for Cultured Cells (Pierce, Thermo Fisher Scientific Inc., Rockford, IL, USA, number 78840). Lysed cells were separated into subsequent cytosol, membrane, and nuclear fractions. Extracted proteins were subjected to SDS PAGE separation and fluorescence and Western blot analysis.

T1 sequence (P10605 80-333 limits assumed): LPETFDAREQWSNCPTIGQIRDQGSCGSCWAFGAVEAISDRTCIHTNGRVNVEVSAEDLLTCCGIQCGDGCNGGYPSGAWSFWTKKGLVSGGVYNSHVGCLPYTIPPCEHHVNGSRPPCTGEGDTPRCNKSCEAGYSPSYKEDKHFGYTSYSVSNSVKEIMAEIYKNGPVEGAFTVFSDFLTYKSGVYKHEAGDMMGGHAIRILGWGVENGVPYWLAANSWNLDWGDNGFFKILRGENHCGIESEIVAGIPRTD
Recombinant human cathepsin S, sequence (P25774 115-331): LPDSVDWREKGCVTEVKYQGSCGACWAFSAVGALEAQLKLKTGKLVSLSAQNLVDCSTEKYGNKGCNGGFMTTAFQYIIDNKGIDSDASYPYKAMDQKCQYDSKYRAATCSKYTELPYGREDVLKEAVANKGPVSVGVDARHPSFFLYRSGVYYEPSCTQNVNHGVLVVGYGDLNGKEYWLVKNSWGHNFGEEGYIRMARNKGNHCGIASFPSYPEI
T2 sequence (P06797 114-334): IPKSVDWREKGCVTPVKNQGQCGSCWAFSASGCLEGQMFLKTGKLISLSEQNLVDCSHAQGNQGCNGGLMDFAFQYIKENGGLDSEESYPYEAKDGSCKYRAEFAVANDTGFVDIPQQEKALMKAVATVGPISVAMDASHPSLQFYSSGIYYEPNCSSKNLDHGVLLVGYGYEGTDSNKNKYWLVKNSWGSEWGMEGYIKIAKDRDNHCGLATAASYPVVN
Recombinant human cathepsin L, sequence (P07711 114-333): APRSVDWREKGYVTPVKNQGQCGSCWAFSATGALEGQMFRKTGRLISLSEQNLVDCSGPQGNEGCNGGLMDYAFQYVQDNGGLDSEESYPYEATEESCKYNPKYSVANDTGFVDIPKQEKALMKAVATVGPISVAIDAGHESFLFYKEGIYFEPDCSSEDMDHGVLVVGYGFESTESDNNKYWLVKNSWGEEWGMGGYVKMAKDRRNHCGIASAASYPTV

Compound	Fold quenching (quenching efficiency) [1]	Nuclear cathepsin labeling (confocal Z-stack, costaining with Hoechst) (NIH-3T3 cells [2])	Probe staining intensity in live cells (NIH-3T3 cells [2])	Fluorescence labeling of recombinant cathepsin B [3]	Fluorescence labeling of recombinant cathepsin L [4]	Fluorescence labeling of recombinant cathepsin S [5]	Labeling of intracellular cathepsin B [7]	Labeling of intracellular cathepsin L [8]	other results
Ac-Cys-Phe-Phe-Lys-(TMR-X)-AOMK-QSY7 [KRS-D1(qAc)]	61 fold	did not detect cathepsins in the nucleus	relatively weak staining	–	–	–	–	–	–
Cc1cccc(C)c1C(=O)OCC(=O)[C@H](CCCCN)NC(=O)[C@H](Cc1ccccc1)NC(=O)OCc1ccccc1 [GB111-NH2, reference compound]	–	–	–	dramatically reduced	dramatically reduced	dramatically reduced	–	–	Fluorescent signal of KRS probes after inhibitor pretreatment (HeLa cells [6]; live HeLa, 2.5 μM GB111-NH2 pretreatment, then KRS-B1(qTAT) or KRS-E1(qNLS) 6 h): strongly reduced
TAT-Cys-Phe-Phe-Lys-(TMR-X)-AOMK-Ac [KRS-A1(TAT)]	–	–	intense staining	–	–	–	enhanced labeling	enhanced labeling	Binding relative to the other probes ([7]; as seen in Figures 2 and 6a): strongest binding of all probes; Permeability in time-course labeling (NIH-3T3 cells [9]): enhanced and accelerated permeability; Permeability in time-course labeling (HeLa cells [10]): enhanced and accelerated permeability
TAT-Cys-Phe-Phe-Lys-(TMR-X)-AOMK-QSY7 [KRS-B1(qTAT)]	66 fold	label nuclear cathepsins	intense staining	slightly lower	slightly lower	slightly lower	enhanced labeling	enhanced labeling	Cell permeability / cell penetration [7]: significantly greater cell penetration; Permeability in time-course labeling (NIH-3T3 cells [9]): enhanced and accelerated permeability; Permeability in time-course labeling (HeLa cells [10]): enhanced and accelerated permeability; Effect on entry of cells to mitosis (HeLa cells [6]; HeLa, 2.5 μM, time-lapse over 22 h): inhibited the entry of cells to mitosis; Nuclear cathepsin activity (TMR-X and Draq5 similarity) (HeLa cells [11]): much higher degree; Active cathepsin in nuclear fraction (HeLa cells [12]): clear presence of active nuclear cathepsin
Ac-Cys-Phe-Phe-Lys-(TMR-X)-AOMK-Ac [KRS-C1(Ac)]	–	–	relatively weak staining	–	–	–	–	–	–
NLS-Cys-Phe-Phe-Lys-(TMR-X)-AOMK-Ac [KRS-F1(NLS)]	–	–	intense staining	–	–	–	–	–	–
NLS-Cys-Phe-Phe-Lys-(TMR-X)-AOMK-QSY7 [KRS-E1(qNLS)]	54 fold	label nuclear cathepsins	intense staining	slightly lower	slightly lower	slightly lower	enhanced labeling	enhanced labeling	Cell permeability / cell penetration [7]: significantly greater cell penetration; Intensity in fractions relative to KRS-B1(qTAT) (HeLa cells [12]): weaker intensity; Active cathepsin in nuclear fraction (HeLa cells [12]): clear presence of active nuclear cathepsin
